Assay results reported in US20080038402A1, “RUMINANT ANIMAL FEED FORMULATIONS AND METHODS OF FORMULATING SAME” (priority 2006, published 2008).
Marks after values point to notes of the source that are not given here.

What was measured:
rumen fluid [1] = assay: Example 3a in vitro rumen fluid incubation (gas, DMD, VFA): monensin, soy oil, Ca salts of soy oil; type: cell-based
From the text: One objective of this experiment was to compare these lipid sources (soy oil and calcium salts of soy oil) with each other and in the presence and absence of monensin sodium.
Production of iso-valeric acid and n-valeric acid was also used to estimate the level of protein (specifically branched chain amino acid) degradation in the rumen (Benchaar et al 1998), and results of VFA production can thus be used as an adjustment factor to express the benefit of such additives on protein degradability.
(§1) The measurement of rumen gas production over time is a well described technique (Minson 1998) and is subject to small variation between laboratories. In this laboratory, the substrate employed in all experiments was based on a dried TMR sample. Data from gas measurement observations using two replicates (true volume corrected by subtraction of corresponding negative control values at similar time point) was analyzed by ANOVA with time, treatment, and replicate as main effects in the model. The interaction of time by treatment by replicate was used as the error term. Dry matter digestibility was analyzed by ANOVA with treatment as the main effect in the model and treatment by replicate interaction as the error term. VFA parameters were analyzed by ANOVA with treatment as the main effect in the model and treatment by replicate interaction as the error term.
Statistical summaries are given in Tables 10-12 below for Mean Gas Production (0 to 6 hours incubation), DMD (Dry Matter Digestibility) %, VFA Tot. (Volatile Fatty Acids total moles), Acetic, Propionic, Butyric, Isobutyric, Isovaleric, and n-Valeric acids (molar percentages).
This trial further validates the adjustments applied to KB when monensin and soy oil are included in the diet either separately or in combination. Adjustment factors are calculated as the ratio of rumen active feed additive valerate production (i-valeric acid plus n-valeric acid) in the combination treatment to that of the control (TMR with CaSalts of SoyOil). Using this approach, KB can be adjusted by the following factors: • Monensin=6.36/7.20=0.88 • SoyOil=6.95/7.20=0.97 • Monensin+SoyOil=5.40/7.20=0.75

rumen fluid [2] = assay: Redox, pH and dry matter disappearance of rumen fluid incubated 6 hours at 39° C.; type: cell-based, cows; details: by treatment
Experimental: (§2) Rumen fluid was sampled via the fistula using the Geishawer probe according to standard methodology, with sampling done 2 hours pre-feeding, and again at 2, 4, and 6 hours post-feeding at day 19, 20 or 21 of a 21 day feeding period. Fluid was strained through 4 ply cheesecloth into duplicate containers treated with phosphoric acid (preservative). At the end of each feeding period, rumen fluid from the 2 hours pre-feeding sample was placed into a pre-warmed half litre vacuum flask and forwarded for in vitro studies, described below. The vacuum flask was filled and covered immediately after sampling.
(§3) Temperature, pH, redox on strained and unstrained rumen fluid were measured to assess viability and consistency. The rumen fluid was incubated for 6 hours at 39° C. with (1) control 0.13 g soybean meal (SBM) and 0.13 g TMR food sample; and (2) test 0.13 g Top Soy and 0.13 g TMR. Samples were analyzed for ammonia concentration and substrate disappearance.

rumen fluid [3] = assay: Example 3c in vitro rumen fluid incubation (gas, DMD, VFA): monensin, organic acid, yeast culture, fermentation solubles; type: cell-based
Experimental: as §1, with “Data from gas measurement observations using two replicates (true volume corrected by subtraction of corresponding negative control values at similar time point) was analyzed by ANOVA with time, treatment, and replicate as main effects in the model.” left out
The protocol used in Example 3a was also used in 3c to investigate the additive effects of other RAFA
Statistical summaries were tabulated in Tables 18-20 below for Mean Gas Production (0 to 6 hours incubation), DMD (Dry Matter Digestibility) %, VFA Tot. (Volatile Fatty Acids total moles), Acetic, Propionic, I-Butyric, n-Butyric, Isovaleric, and n-Valeric acids (molar percentages).

rumen-fistulated cows = assay: Daily milk production and feed consumption; type: in vivo; details: by treatment
Experimental: (§4) The use of the RAFA, were compared with an animal control. A four by four latin square design was used, employing four rumen-fistulated cows. Cows were fed a standard TMR (total mixed ration) for at least 7 days prior to the start of the experiment, and were assigned to one of the following four 21 day ration sequences: ABCD, BCDA, CDAB, and DABC, where A, B, C, and D are as follows: (A) control (standard TMR); (B) Monensin (control diet plus 200 mg/kg monensin); (C) Surfactant (control diet plus 316 mg/kg Surfactant); (D) Essential Oil (control diet plus 5 mg/kg Essential Oil).

rumen fluid [4] = assay: Rumen fluid pH and volatile fatty acids in rumen-fistulated cows (4x4 latin square); type: in vivo
Experimental: as §4, §2
Rumen fluid pH and volatile fatty acids (VEA) were measured.

rumen fluid [5] = assay: Rumen gas production in vitro (rumen fluid added to buffer and food source, 0 to 6 hours); type: cell-based; details: by treatment of donor cows
Experimental: as §2
Rumen fluid samples were also added to buffer and food source, and gas production was recorded from time 0 to 6 hours.

rumen fluid [6] = assay: Rumen ammonia level after incubation, by treatment and soy process; type: cell-based, cows; details: by treatment
Experimental: as §3
This trial further validates the adjustments applied to KB in the method when monensin sodium, Surfactant or Essential Oil are included in the diet. Adjustment factors for each RAFA were calculated as the ratio of additive ammonia production to that of the control and applied to the KB during formulation.

rumen fluid [7] = assay: Concentration and breakdown of VFA in vitro in incubated rumen fluid; type: cell-based, cows; details: by treatment
Experimental: as §3
Concentration and breakdown of volatile fatty acids (VFA) in vitro were tabulated in Table 7, below, as results of statistical analysis across all timepoints.

For monensin sodium, the Acetic (rumen fluid [1]; VFA) was 60.97^ab molar %, the Prop (rumen fluid [1]; VFA) was 20.82^b molar % and the i-But (rumen fluid [1]; VFA) was 1.06^c molar %. For the same substance, the i-Val (rumen fluid [1]; VFA) was 4.65^a molar %, the n-But (rumen fluid [1]; VFA) was 10.79 molar % and the n-Val (rumen fluid [1]; VFA) was 1.71 molar %. The “Mean Gas ml 0–6 hr” value (rumen fluid [1]; calculated as increase over Control, 6.6 mg/L monensin, 6 g/L lipid) was 5.31^e ml, the DMD % (rumen fluid [1]; dry matter disappearance) was 43.48^a % and the “VFA, moles” value (rumen fluid [1]; total VFA production) was 52.51^a moles. The “pH at T0” value (rumen fluid [2]) was 6.31, the DMD % (rumen fluid [2]; 6 hours at 39° C.) was 40.43% and the “Redox (seconds) at T0” value (rumen fluid [2]; cell viability) was 30 s. The DMD % (rumen fluid [3]; Dry Matter Digestibility) was 19.4^ad %, the Acetic (rumen fluid [3]; VFA) was 60.5 mmol/100 mmol and the Prop (rumen fluid [3]; VFA) was 22.4^ab mmol/100 mmol. For the same substance, the i-But (rumen fluid [3]; VFA) was 4.1^bc mmol/100 mmol, the i-Val (rumen fluid [3]; VFA) was 1.5^abd mmol/100 mmol and the n-But (rumen fluid [3]; VFA) was 10.2 mmol/100 mmol. The n-Val (rumen fluid [3]; VFA) was 1.2^abc mmol/100 mmol, the “Mean Gas ml 0–6 hr” value (rumen fluid [3]; calculated as increase over negative Control) was −0.9^b ml and the VFA total (rumen fluid [3]; total yields) was 41.6^b mmol/L. For the same substance, the “DMI (dry matter intake)” value (rumen-fistulated cows) was 24.7^ab kg/day, the Milk (rumen-fistulated cows) was 43.7 kg/day and the “Milk/kg DMI” value (rumen-fistulated cows) was 1.77. The “Rumen pH” value (rumen fluid [4]; by treatment across all time points, 21 day ration, monensin 200 mg/kg, Surfactant 316 mg/kg, Essential Oil 5 mg/kg diet) was 6.07, the “Acetic (acetic acid)” value (rumen fluid [4]; rumen fluid by treatment) was 57.90^b molar percentage and the “Prop (propionic acid)” value (rumen fluid [4]; rumen fluid by treatment) was 24.91^c molar percentage. The VFA total (rumen fluid [4]; rumen fluid by treatment) was 102.64^b mmol/L, the “i-But (i-butyric acid)” value (rumen fluid [4]; rumen fluid by treatment) was 0.95^b molar percentage and the “i-Val (i-valeric acid)” value (rumen fluid [4]; rumen fluid by treatment) was 1.08^c molar percentage. For the same substance, the “n-But (n-butyric acid)” value (rumen fluid [4]; rumen fluid by treatment) was 12.33 molar percentage, the “n-Val (n-valeric acid)” value (rumen fluid [4]; rumen fluid by treatment) was 2.82^b molar percentage and the “Molar yields of propionate” value (rumen fluid [4]; rumen fluid by treatment, control 24.81) was 25.56. For the same substance, the GAS (rumen fluid [5]) was 10.39^c ml, the “Baseline-corrected Ammonia post incubation” value (rumen fluid [6]) was 27.49^a mg/L and the “Baseline-corrected percent Ammonia reduction with Top Soy relative to SBM” value (rumen fluid [6]) was 45.26%. For the same substance, the Acetic (rumen fluid [7]) was 58.62^a molar percentage, the Prop (rumen fluid [7]) was 25.51^a molar percentage and the VFA total (rumen fluid [7]) was 75.03^c mmol/L. The i-But (rumen fluid [7]) was 1.18 molar percentage, the i-Val (rumen fluid [7]) was 1.44^b molar percentage and the n-But (rumen fluid [7]) was 12.09^bc molar percentage. The n-Val (rumen fluid [7]) was 1.16^c molar percentage.
